Experimental findings from US12139520B2 (priority 2020, dated 2024) are described below.

One data set has as its target T1, hAMY3 receptor (Homo sapiens, UniProt O60896+P30988).
T1 sequence (P30988 25-474): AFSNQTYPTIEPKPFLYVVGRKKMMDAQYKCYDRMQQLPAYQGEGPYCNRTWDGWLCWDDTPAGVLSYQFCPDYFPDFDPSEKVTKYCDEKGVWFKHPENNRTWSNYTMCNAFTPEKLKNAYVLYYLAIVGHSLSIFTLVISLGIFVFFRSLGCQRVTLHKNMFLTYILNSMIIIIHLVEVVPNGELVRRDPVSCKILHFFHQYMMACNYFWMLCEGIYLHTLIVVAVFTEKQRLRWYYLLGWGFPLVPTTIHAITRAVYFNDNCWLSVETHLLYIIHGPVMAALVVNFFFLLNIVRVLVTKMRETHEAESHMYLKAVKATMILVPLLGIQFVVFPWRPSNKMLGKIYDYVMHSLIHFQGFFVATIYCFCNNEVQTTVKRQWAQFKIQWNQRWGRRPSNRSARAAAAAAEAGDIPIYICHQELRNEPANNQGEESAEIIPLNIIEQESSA
T1 sequence (O60896 24-148 partner): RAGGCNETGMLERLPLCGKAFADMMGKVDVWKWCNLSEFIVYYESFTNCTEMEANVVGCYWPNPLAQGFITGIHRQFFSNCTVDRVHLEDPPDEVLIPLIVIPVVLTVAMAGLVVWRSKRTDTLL
Description: cAMP assay for in vitro receptor activation, hAMY3-R. Conditions: cAMP assay, hAMY3 receptor; read-out: hAMY3R EC50. The data set is classed as cell-based. A digest of the protocol: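 Monoclonal cell line stably overexpressing hAMY3 receptor, plated in DPBS with 0.05% casein and 0.5 mM IBMX, was stimulated with graded compound doses for 30 min at room temperature. cAMP accumulation was read by time-resolved FRET one hour after adding detection reagents.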
For orientation: cAMP levels reflect the balance of adenylyl cyclase and phosphodiesterase activity.

A further data set addresses hAM1 receptor (Homo sapiens, UniProt O60895+Q16602). Description: cAMP assay for in vitro receptor activation, hAM1-R. The data set is classed as cell-based. Conditions: cAMP assay, hAM1 receptor; read-out: hAM1R EC50. In short, it runs like this:
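cAMP accumulation was measured in a monoclonal cell line stably overexpressing the hAM1 receptor. Frozen aliquots were thawed and plated at 8000 cells/well in DPBS containing 0.05% casein and 0.5 mM IBMX.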

Data set [1] in a line: Acute food intake study in lean rats. The class given is in vivo, rat. The conditions noted are these: single SC injection, lean healthy rats; for Average cumulative food intake: up to 48 h, P < 0.001 vs vehicle. Here is the method:
General Protocols for Acute Food Intake Study
The effect on cumulative food intake was measured in male Sprague Dawley rats (6 weeks of age, Taconic, Denmark) following a single dose using a fully automated food intake monitoring system (HM-2; MBRose ApS, Faaborg, Denmark), allowing for advanced synchronous real-time monitoring of food intake behaviour of individual animals. The animals were housed in groups of 4 in a light-, temperature-, and humidity-controlled room (a 12/12 LD cycle, lights on at 02:00 AM; 22±2° C.; 50% relative humidity). The mice had ad libitum access to regular chow diet (Altromin 1324, Brogaarden A/S, Lynge, Denmark) and domestic quality tap water. Mice arrived at day 7, and a minimum of 5 days of habituation to the system was allowed prior to beginning of the study. During these days, the animals were handled daily to accustom them to the experimental paradigm. On the day of dosing, the animals were randomized into groups according to body weight. Animals were fasted for four hours prior to dosing. Animals were dosed SC 30 or 180 min prior to lights out, and food intake data were collected automatically for a total of 48 h post-dosing with automatic food recordings every 5 min.

The nature of data set [2]: Physical stability of peptide analogues (Thioflavin T fibrillation). The data set is classed as physicochemical. The conditions noted are these: maximum ThT signal normalized between hAMY maximum and buffer background; 40° C., shaking, four days; pH 7 per table title. A digest of the protocol: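 Maximum ThT emission at 480 nm, after LOESS smoothing, is given as percent of the span from buffer background to hAMY. Conditions: 50 mM buffer at pH 4 or 7, 4 μM dye, 40 °C, repeated shaking, readings every 10 min for four days.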

SMILES strings stand for the structures. Numbered stars: 1 amine (or outer) side, 2 acyl side, 3 side chain; on linkers, the order of the positions; unused ones are H or OH. Bridge positions count the residues as written; N and C are the ends. Square brackets hold non-standard residues; d marks the D form. Side chains are listed from the residue outwards. Peptide text beside a SMILES is read from it. * marks the point of attachment. C20 diacid = O=C(O)CCCCCCCCCCCCCCCCCCC(=O)*; γGlu = O=C(O)[C@H](CCC(=O)[*:2])N[*:1]; Hyp = O=C(O)[C@@H]1C[C@@H](O)CN1; AEEA = NCCOCCOCC(=O)O

Sequence of hAM1 receptor (Q16602 23-461): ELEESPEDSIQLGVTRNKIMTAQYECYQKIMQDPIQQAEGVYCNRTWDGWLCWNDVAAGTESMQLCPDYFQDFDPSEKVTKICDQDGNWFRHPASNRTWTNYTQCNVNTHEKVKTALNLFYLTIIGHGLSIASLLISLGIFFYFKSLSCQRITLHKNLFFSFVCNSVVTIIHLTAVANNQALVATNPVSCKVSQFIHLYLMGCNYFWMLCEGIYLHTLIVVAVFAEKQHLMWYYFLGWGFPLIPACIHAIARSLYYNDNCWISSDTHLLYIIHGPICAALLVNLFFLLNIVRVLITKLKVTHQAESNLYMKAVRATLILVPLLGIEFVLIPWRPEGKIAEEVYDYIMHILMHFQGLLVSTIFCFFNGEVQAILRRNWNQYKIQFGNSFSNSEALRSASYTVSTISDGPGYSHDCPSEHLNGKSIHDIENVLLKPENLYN
Sequence of hAM1 receptor (O60895 43-175 partner): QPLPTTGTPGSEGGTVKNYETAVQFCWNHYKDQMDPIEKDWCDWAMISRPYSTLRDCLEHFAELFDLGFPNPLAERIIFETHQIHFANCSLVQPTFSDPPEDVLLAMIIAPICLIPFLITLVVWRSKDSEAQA

As usually defined, the EC50 is the concentration that produces a half-maximal response. Take `CC[C@H](C)[C@H](NC(=O)[C@H](CCC(N)=O)NC(=O)[C@H](Cc1c[nH]cn1)NC(=O)[C@H](C)NC(=O)[C@H](CC(C)C)NC(=O)[C@H](CCCNC(=N)N)NC(=O)[C@H](CC(=O)O)NC(=O)[C@@H](NC(=O)[C@@H](NC(=O)[C@@H]1CSSC[C@H](NC(=O)[C@H](CCCCN)NC(=O)CC[C@H](NC(=O)CCCCCCCCCCCCCCCCCCC(=O)O)C(=O)O)C(=O)N[C@@H](CC(N)=O)C(=O)N[C@@H]([C@@H](C)O)C(=O)N[C@@H](C)C(=O)N[C@@H]([C@@H](C)O)C(=O)N1)[C@@H](C)O)C(C)C)C(=O)N[C@@H](Cc1ccc(O)cc1)C(=O)N[C@@H](CCC(N)=O)C(=O)N[C@@H](Cc1ccccc1)C(=O)N[C@H](C(=O)N[C@@H](CC(=O)O)C(=O)N[C@@H](CCCCN)C(=O)N[C@@H](CC(=O)O)C(=O)N[C@@H](CCCCN)C(=O)N[C@@H](CC(=O)O)C(=O)N[C@@H](CC(N)=O)C(=O)N[C@H](C(=O)N[C@@H](C)C(=O)N1CCC[C@H]1C(=O)N1CCC[C@H]1C(=O)N[C@H](C(=O)N[C@@H](CC(N)=O)C(=O)N[C@H](C(=O)NCC(=O)N[C@@H](CO)C(=O)N[C@@H](CC(N)=O)C(=O)NCC(=O)N1C[C@H](O)C[C@H]1C(N)=O)C(C)C)[C@@H](C)O)C(C)C)[C@@H](C)O` [compound 4] ({C20 diacid-γGlu}-KCNTATCTVDRLAHQIYQFTDKDKDNVAPPTNVGSNG[Hyp]-NH2; disulfide 2-7): the EC50 was 0.006 nM on hAMY3 receptor and greater than 5000 nM on hAM1 receptor. Moreover, the “cumulative food intake, % to vehicle” value stood at 59.23% in data set [1] (10 nmol/kg) and 30.86% in data set [1] (30 nmol/kg). Moreover, the “Average cumulative food intake” value was found to be 26.3 g in data set [1] (10 nmol/kg) and 13.7 g in data set [1] (30 nmol/kg).

On to `CC[C@H](C)[C@H](NC(=O)[C@H](CCC(N)=O)NC(=O)[C@H](CCC(=O)O)NC(=O)[C@H](C)NC(=O)[C@H](CC(C)C)NC(=O)[C@H](CCCNC(=N)N)NC(=O)[C@H](CCC(N)=O)NC(=O)[C@@H](NC(=O)[C@@H](NC(=O)[C@@H]1CSSC[C@H](NC(=O)[C@@H](N)CCCCN)C(=O)N[C@@H](CC(N)=O)C(=O)N[C@@H]([C@@H](C)O)C(=O)N[C@@H](C)C(=O)N[C@@H]([C@@H](C)O)C(=O)N1)[C@@H](C)O)C(C)C)C(=O)N[C@@H](Cc1ccc(O)cc1)C(=O)N[C@@H](CCC(N)=O)C(=O)N[C@@H](Cc1ccccc1)C(=O)N[C@H](C(=O)N[C@@H](CC(=O)O)C(=O)N[C@@H](CCCCN)C(=O)N[C@@H](CC(=O)O)C(=O)N[C@@H](CCCCN)C(=O)N[C@@H](CC(=O)O)C(=O)N[C@@H](CC(N)=O)C(=O)N[C@H](C(=O)N[C@@H](C)C(=O)N1CCC[C@H]1C(=O)N1CCC[C@H]1C(=O)N[C@H](C(=O)N[C@@H](CC(N)=O)C(=O)N[C@H](C(=O)NCC(=O)N[C@@H](CO)C(=O)N[C@@H](CCCCNC(=O)COCCOCCNC(=O)COCCOCCNC(=O)CC[C@H](NC(=O)CCCCCCCCCCCCCCCCCCC(=O)O)C(=O)O)C(=O)NCC(=O)N1C[C@H](O)C[C@H]1C(N)=O)C(C)C)[C@@H](C)O)C(C)C)[C@@H](C)O` [compound 6] (H-KCNTATCTVQRLAEQIYQFTDKDKDNVAPPTNVGSK([AEEA-AEEA-γGlu-C20 diacid])G[Hyp]-NH2; disulfide 2-7; N-terminus assumed), for which the EC50 at hAMY3 receptor was determined as 0.006 nM. The EC50 at hAM1 receptor is greater than 5000 nM. Moreover, in data set [1] (10 nmol/kg), the “cumulative food intake, % to vehicle” value was determined as 65.63% and the “Average cumulative food intake” value was determined as 27.5 g.

On to `CC[C@H](C)[C@H](NC(=O)[C@H](CCC(N)=O)NC(=O)[C@H](Cc1c[nH]cn1)NC(=O)[C@H](C)NC(=O)[C@H](CC(C)C)NC(=O)[C@H](CCCNC(=N)N)NC(=O)[C@H](CCC(N)=O)NC(=O)[C@@H](NC(=O)[C@@H](NC(=O)[C@@H]1CSSC[C@H](NC(=O)[C@H](CCCCN)NC(=O)CC[C@H](NC(=O)CCCCCCCCCCCCCCCCCCC(=O)O)C(=O)O)C(=O)N[C@@H](CC(N)=O)C(=O)N[C@@H]([C@@H](C)O)C(=O)N[C@@H](C)C(=O)N[C@@H]([C@@H](C)O)C(=O)N1)[C@@H](C)O)C(C)C)C(=O)N[C@@H](C)C(=O)N[C@@H](CCC(N)=O)C(=O)N[C@@H](Cc1ccccc1)C(=O)N[C@H](C(=O)N[C@@H](CC(=O)O)C(=O)N[C@@H](CCCCN)C(=O)N[C@@H](CC(=O)O)C(=O)N[C@@H](CCCCN)C(=O)N[C@@H](CC(=O)O)C(=O)N[C@@H](CC(N)=O)C(=O)N[C@H](C(=O)N[C@@H](C)C(=O)N1CCC[C@H]1C(=O)N1CCC[C@H]1C(=O)N[C@H](C(=O)N[C@@H](CC(N)=O)C(=O)N[C@H](C(=O)NCC(=O)N[C@@H](CO)C(=O)N[C@@H](CC(N)=O)C(=O)N[C@@H](CO)C(=O)N1C[C@H](O)C[C@H]1C(N)=O)C(C)C)[C@@H](C)O)C(C)C)[C@@H](C)O` [compound 69] ({C20 diacid-γGlu}-KCNTATCTVQRLAHQIAQFTDKDKDNVAPPTNVGSNS[Hyp]-NH2; disulfide 2-7), for which, on hAMY3 receptor, the EC50 came to 0.013 nM. In data set [1] (10 nmol/kg), the “cumulative food intake, % to vehicle” value was 17.52% and the “Average cumulative food intake” value turned out to be 7.13 g.

Regarding `CC[C@H](C)[C@H](NC(=O)[C@H](CCCCN)NC(=O)[C@@H](NC(=O)[C@H](CCCNC(=N)N)NC(=O)[C@@H]1CCCN1C(=O)[C@H](C)NC(=O)[C@@H](NC(=O)[C@H](CC(N)=O)NC(=O)[C@H](CC(=O)O)NC(=O)[C@H](CCCCN)NC(=O)[C@H](CC(=O)O)NC(=O)[C@H](CCCCN)NC(=O)[C@H](CC(=O)O)NC(=O)[C@@H](NC(=O)[C@H](Cc1ccccc1)NC(=O)[C@H](CCC(N)=O)NC(=O)[C@H](Cc1ccc(O)cc1)NC(=O)[C@@H](NC(=O)[C@H](CCC(N)=O)NC(=O)[C@H](Cc1c[nH]cn1)NC(=O)[C@H](C)NC(=O)[C@H](CC(C)C)NC(=O)[C@H](CCCNC(=N)N)NC(=O)[C@H](CCC(N)=O)NC(=O)[C@@H](NC(=O)[C@@H](NC(=O)[C@@H]1CSSC[C@H](NC(=O)CN)C(=O)N[C@@H](CCCNC(=N)N)C(=O)N[C@@H](Cc2ccccc2)C(=O)NCC(=O)N[C@@H]([C@@H](C)O)C(=O)N1)[C@@H](C)O)C(C)C)[C@@H](C)CC)[C@@H](C)O)C(C)C)[C@@H](C)O)C(=O)NCC(=O)N1CCC[C@H]1C(=O)N[C@@H](CC(N)=O)C(=O)NCC(=O)N1C[C@H](O)C[C@H]1C(N)=O` [compound 124] (H-GCRFGTCTVQRLAHQIYQFTDKDKDNVAPRTKIGPNG[Hyp]-NH2; disulfide 2-7), the EC50 at hAMY3 receptor was 0.027 nM. The “Max ThT signal (%)” value in data set [2] came out at 4.800%. Besides, in data set [1] (10 nmol/kg), the “cumulative food intake, % to vehicle” value is listed as 59.46% and the “Average cumulative food intake” value turned out to be 24.2 g.
